Measured values as given in patent US9549988B2, “Pharmaceutical compounds targeted by MIF affinity-tethered moieties” (RJS Biologics LLC, priority 2013, dated 2017).
Like-named read-outs stand apart in the source and are kept apart here.

Key:
[1] = test system: large cell lung cancer cell lines (NCI-H460); experiment: WST-8 cellular proliferation assay, NCI-H460 lung cancer cells; assay type: cell-based; conditions: for IC50: Table 4, EGFRi derivatives, WST-8, read-out: IC50 Cancer Cells ATCC NCI-H460; for Selectivity: Table 4, 1° fibroblasts versus NCI-H460 cancer cells
[2] = test system: Normal Human Adult Dermal Fibroblasts (ATCC PCS-201-012); experiment: WST-8 cellular proliferation assay, primary dermal fibroblasts; assay type: cell-based; conditions: for IC50: read-out: IC50 1° Fibroblasts, Table 4, EGFRi derivatives
Procedure: (§1) Assays were performed according to the manufactures instructions.

[3] = test system: Human tumor cell lines of a cancer screening panel; experiment: Sulforhodamine B (SRB) cellular proliferation assay, cancer screening panel; assay type: cell-based; conditions: 10 μM
Procedure: This example illustrates several in vitro experiments in predictive models of cancer to show the potential therapeutic utility of the disclosed compounds. Human tumor cell lines of a cancer screening panel were grown in RPMI 1640 medium containing 5% fetal bovine serum and 2 mM L-glutamine. Cells were inoculated into 96 well microtiter plates in 100 μL at plating densities ranging from 5,000 to 40,000 cells/well depending on the doubling time of individual cell lines. After cell inoculation, the microtiter plates were incubated at 37° C., 5% CO2, 95% air and 100% relative humidity for 24 h prior to addition of experimental drugs.
After 24 h, two plates of each cell line were fixed in situ with trichloroacetic acid (TCA), to represent a measurement of the cell population for each cell line at the time of drug addition (T=zero). Experimental drugs were solubilized in dimethyl sulfoxide at 400-fold the desired final maximum test concentration and stored frozen prior to use. […]
Following drug addition, the plates were incubated for an additional 48 h at 37° C., 5% CO2, 95% air, and 100% relative humidity. […] Bound stain was subsequently solubilized with 10 mM trizma base, and the absorbance was read on an automated plate reader at a wavelength of 515 nm. […] Using the seven absorbance measurements [time zero, (T=zero), control growth, (C), and test growth in the presence of drug at the five concentration levels (Ti)], the percentage growth was calculated at each of the drug concentrations levels.
Percentage growth inhibition was calculated as: [(Ti−Tzero)/(C−Tzero)]×100 for concentrations for which Ti>/=Tzero [(Ti−Tzero)/Tzero]×100 for concentrations for which Ti<Tzero. Three dose response parameters were calculated for each experimental agent. […] The drug concentration resulting in total growth inhibition (TGI) was calculated from Ti=Tzero. […] The same procedures were used to create FIGS. 19 and 20 except a single 10 μM data point was recorded for each cell line.

THP-1 leukemia cells = experiment: Flow cytometry uptake by THP-1 cells in presence of ISO-1; assay type: cell-based, human; conditions: FIG. 22, 2 hrs at 37° C.
Procedure: This example illustrates an in vitro experiment using predictive models of cancer to show the cellular specificity and potential therapeutic utility of the inventive compounds. The human leukemic cell line THP-1 was grown AIM-V serum free medium Gibco Life Sciences (Grand Island, N.Y.). […] Then the washed THP-1 cells were added to the drug dilutions to start the experiment ˜75,000 cells per well. Test compounds were incubated 2 hrs at 37° C., then the plate was read by flow cytometry BD Canto 2 (80 μl˜25,000 cells). A population of Single Round “average” cells was selected by FSC and SSC—constituting %70 of the total cell population examined. The amount of doxorubicin uptake was evaluated for this population in the PE channel.

[4] = test system: THP-1 leukemia cells mixed with non-cancerous PBMC cells; experiment: Flow cytometry drug uptake in mixed THP-1 / PBMC population; assay type: cell-based, human; conditions: FIG. 21; THP-1 added to PBMC; 0.8 μM; 2-2.5 h; PE channel
Procedure: This example illustrates an in vitro experiment using predictive models of cancer to show the cellular specificity and potential therapeutic utility of the inventive compounds. The human leukemic cell line THP-1 was grown in RPMI 1640 medium with penicillin, streptomycin, and containing 25 mM Hepes, 0.05 mM 2-mercaptoethanol, 10% fetal bovine serum and 2 mM L-glutamine. Cells washed 2× with Gibco Life Sciences (Grand Island, N.Y.) AIM-V serum free medium and then were inoculated into 96 well microtiter plates in 100 μL at plating densities ranging from 25,000 to 100,000 cells/well. Five to ten million frozen peripheral blood mononuclear cells (PBMCs) (Astarte Biologics, LLC. (Redmond, Wash.)) in a solution of 10% DMSO, 2% human serum albumin in phosphate buffered saline were thawed and immediately washed in AIM-V media. An approximately equal number of these cells (25,000 to 100,000 cells/well) were added to the experimental plate. Doxorubicin was added to a final concentration of 0.8 μM. The microtiter plates were incubated at 37° C., 5% CO2, 95% air and 100% relative humidity for 2-2.5 h then drug uptake was quantified by flow cytometry for example using a BD FACSCanto II (San Jose, Calif.). Doxorubicin uptake was evaluated in the PE channel. Individual cell populations were identified by size, shape and through the use of dye labeled antibodies.

[5] = test system: large cell immunoblastic lymphoma cell lines (ATCC SR); experiment: WST-8 cellular proliferation assay, ATCC SR lymphoma cells; assay type: cell-based; conditions: Table 2; 1° fibroblasts versus ATCC SR cancer cells
Procedure: as §1

[6] = FIG. 20, 14 diverse cancer cell lines

Compound | IC50 ([1]; Homo sapiens, NCI-H460) | Selectivity [1] | inhibition of cancer cell growth (average % inhibition) [3, 6] | IC50 ([2]; Homo sapiens, Fibroblast) | other results
COc1cc2ncnc(Nc3ccc(F)c(Cl)c3)c2cc1NC(=O)/C=C/CN1CCCCC1 [Docomitinib (PF-00299804), Docomitinib] | – | 0.08 | – | – | IC50 [1]: 10.6 µM; IC50 [2]: 0.89 µM
Cc1ccc2oc(=O)n(Cc3ccc(OCC(=O)O)c(O)c3)c2c1 [compound 7, (2-hydroxy-4-[(5-methyl-2-oxo-1,3-benzoxazol-3(2H)-yl)methyl]phenoxy)acetic acid] | – | – | little potency | – | inhibition of cancer cell growth (average % inhibition) ([3]; FIG. 19, 17 cancer cell lines): little if any potency
COc1cccc2c1C(=O)c1c(O)c3c(c(O)c1C2=O)C[C@@](O)(C(=O)CO)C[C@@H]3O[C@H]1C[C@H](N)[C@H](O)[C@H](C)O1 [Doxorubicin] | – | – | – | – | inhibition of cellular uptake by ISO-1 (THP-1 leukemia cells): not inhibited; IC50 1° Fibroblasts ([2]; Table 2, Doxorubicin derivatives): 0.185 ± 0.5 µM; preferential cellular uptake by cancer cells over non-cancerous cells [4]: little preference for the cancer cell line; Selectivity [5]: 26
Cc1ccc2oc(=O)n(Cc3ccc(OCC(=O)NCCC[C@@H]4O[C@@H]5O[C@@]6(C)CC[C@H]7[C@H](C)CC[C@@H]([C@H]4C)[C@@]57OO6)c(O)c3)c2c1 [compound 11, 2-(2-hydroxy-4-((5-methyl-2-oxobenzo[d]oxazol-3(2H)-yl)methyl)phenoxy)-N-(3-((3R,5aS,6R,8aS,9R,10S,12R,12aR)-3,6,9-trimethyldecahydro-12H-3,12-epoxy[1,2]dioxepino[4,3-i]isochromen-10-yl)propyl)acetamide] | – | – | substantial anti-cancer activity | – | –

The next lines start with results.

IC50 ([1]; Homo sapiens, NCI-H460) | Compound | Selectivity [1] | inhibition of cancer cell growth (average % inhibition) [3, 6] | IC50 ([2]; Homo sapiens, Fibroblast) | other results
3.6 µM | COc1cc2c(Nc3ccc(F)c(Cl)c3)ncnc2cc1OCCOCCNC(=O)COc1ccc(Cn2c(=O)oc3ccc(C)cc32)cc1O [RJS012_1] | 1.9 | – | 6.7 µM | –
12.6 µM | C#Cc1cccc(Nc2ncnc3cc(OCCOC)c(OCCOC)cc23)c1 [Tarceva ® (Erlotinib), Erlotinib] | 0.37 | – | 4.7 µM | –
